4 molecules from patent US5364861A, “Optical isomers of 7-[3-(1,1-dialkylmethyl-1-amino-1-pyrrolidinyl]-quinolones and naphthyridones as antibacterial agents” (Warner-Lambert Company, priority 1993, dated 1994) can be followed below.

What is called NOAEL is the highest dose or exposure tested at which no adverse effect was seen.

Converted amounts (≈) assume the structure as drawn. Where a name gives a salt, the structure may show the parent alone. Read-outs that look alike come from different tables or passages of the source.

In one data set the test system is Strep. faecalis MGH-2. The data set is described as follows: in vitro antibacterial activity, microtitration dilution (MIC), Strep. faecalis MGH-2. Format: cell-based. The following applies: Enterococcus faecalis, MGH2, read-out: minimum inhibiting concentration (MIC). The text has this:
(§1) The in vitro antibacterial activity is obtained when tested by the microtitration dilution method as described in Heifetz, et al., Antimicr. Agents & Chemother. 1974;6:124, which is incorporated herein by reference.
(§2) By use of the above methods, the following minimum inhibiting concentration values (MICs in μg/ml), PD50 's in mg/kg, no effect phototoxicity dose in mg/kg and the cytotoxicity IC50 in μg/mL were obtained for representative enantiomers of the invention and compounds of the prior art as shown in the table.

Data set [1] relates to Esch. coli Vogel. Description: median protective dose in mice given lethal systemic infection, Esch. coli. Type of data set: in vivo. The conditions noted are these: Escherichia coli, single dose at time of challenge, route not given, read-out: median protective dose (PD50). Here is the method:
(§3) The in vivo activity is obtained when the compounds are tested according to the procedure of Miller, et al (Proc. Soc. Exp. Biol. Med. 1944;57:261). The median protective dose (PD50) was determined in mice given lethal systemic infections. Single doses of compound were given at time of challenge.
as §2
(§4) The in vivo data as PD50 's are reported below the line of MICs for the same compound.

Data set [2] concerns Pseud. aeruginosa UI-18. The data set is described as follows: median protective dose in mice given lethal systemic infection, Pseud. aeruginosa. Type of data set: in vivo. The conditions noted are these: Pseudomonas aeruginosa, UI18, Pseud. aeruginosa, single dose at time of challenge, route not given, read-out: median protective dose (PD50). Here is the method:
as §3, §2, §4

The test system of another data set is Ent. cloacae MA2646. Description: in vitro antibacterial activity, microtitration dilution (MIC), Ent. cloacae MA2646. Format: cell-based. The following applies: Enterobacter cloacae, read-out: minimum inhibiting concentration (MIC).
Source text: as §1, §2

In data set [3] the test system is Strep. pyogenes C-203. Description: median protective dose in mice given lethal systemic infection, Strep. pyogenes. Type of data set: in vivo. The conditions noted are these: Streptococcus pyogenes, C203, Strep. pyogenes, single dose at time of challenge, route not given, read-out: median protective dose (PD50). Here is the method: as §3, §2, §4
Data set [4] concerns Pseud. aeruginosa UI-18. Description: in vitro antibacterial activity, microtitration dilution (MIC), Pseud. aeruginosa UI-18. Type of data set: cell-based. The following applies: Pseudomonas aeruginosa, UI18, read-out: minimum inhibiting concentration (MIC).
Source text: as §1, §2

Data set [5] in a line: cytotoxicity, colony reduction of hamster V-79 cells. Type of data set: cell-based. The following applies: 3 hours treatment, colonies counted after 5 days, read-out: cytotoxicity IC50 (Cytotox). Here is the method: The cytotoxicity data is obtained using hamster V-79 cells. The cells were suspended in tissue culture medium and grown overnight. Cells were treated with drug for 3 hours, washed free of drug and then replated, and the colonies counted after 5 days. The concentration of drug that reduced colonies by 50% relative to control was recorded.
as §2

In data set [6] the test system is Strep. pneumoniae SV-1. The data set is described as follows: in vitro antibacterial activity, microtitration dilution (MIC), Strep. pneumoniae SV-1. Type of data set: cell-based. The conditions noted are these: Streptococcus pneumoniae, SV1, read-out: minimum inhibiting concentration (MIC).
Source text: as §1, §2

Data set [7] has as its system Esch. coli Vogel. The data set is described as follows: in vitro antibacterial activity, microtitration dilution (MIC), Esch. coli Vogel. Type of data set: cell-based. The conditions noted are these: Escherichia coli, read-out: minimum inhibiting concentration (MIC).
Source text: as §1, §2

In another data set the test system is Staph. aureus H 228. The data set is described as follows: in vitro antibacterial activity, microtitration dilution (MIC), Staph. aureus H 228. Type of data set: cell-based. The conditions noted are these: Staphylococcus aureus, H228, read-out: minimum inhibiting concentration (MIC).
Source text: as §1, §2

A further data set deals with Klebs. pneumoniae MGH-2. The data set is described as follows: in vitro antibacterial activity, microtitration dilution (MIC), Klebs. pneumoniae MGH-2. Type of data set: cell-based. The conditions noted are these: Klebsiella pneumoniae, MGH2, read-out: minimum inhibiting concentration (MIC).
Source text: as §1, §2

For a further data set, the system named is Prot. rettgeri M 1771. The data set is described as follows: in vitro antibacterial activity, microtitration dilution (MIC), Prot. rettgeri M 1771. Format: cell-based. The conditions noted are these: Providencia rettgeri, M1771, read-out: minimum inhibiting concentration (MIC).
Source text: as §1, §2

A further data set concerns Staph. aureus UC-76. The data set is described as follows: in vitro antibacterial activity, microtitration dilution (MIC), Staph. aureus UC-76. Type of data set: cell-based. The conditions noted are these: Staphylococcus aureus, UC76, read-out: minimum inhibiting concentration (MIC).
Source text: as §1, §2

Data set [8] relates to Strep. pyogenes C-203. Description: in vitro antibacterial activity, microtitration dilution (MIC), Strep. pyogenes C-203. The conditions noted are these: Streptococcus pyogenes, C203, read-out: minimum inhibiting concentration (MIC). Type of data set: cell-based.
Source text: as §1, §2

A further data set in a line: in vivo. Further details: species or system mice. The following applies: mouse, po. Here is the method:
The phototoxicity data is obtained using depilated mice. Compound was administered orally each day for four successive days, followed each day by 3 hours of […] radiation. The mice were examined for any positive signs (redness, erythema) relative to control animals. The no effect dose and the 50% effect dose were determined. By use of the above methods, the following minimum inhibiting concentration values (MICs in μg/ml), PD50 's in mg/kg, no effect phototoxicity dose in mg/kg and the cytotoxicity IC50 in μg/mL were obtained for representative enantiomers of the invention and compounds of the prior art as shown in the table.

Data set [9] relates to Strep. pneumoniae SV-1. Description: median protective dose in mice given lethal systemic infection, Strep. pneumoniae. Format: in vivo. The following applies: Streptococcus pneumoniae, SV1, Strep. pneumoniae, single dose at time of challenge, route not given, read-out: median protective dose (PD50). Here is the method: as §3, §2, §4

Consider `CC(C)(N)[C@@H]1CCN(c2c(F)cc3c(=O)c(C(=O)O)cn(C4CC4)c3c2Cl)C1` [Example 2, (R)-7-[3-(1-Amino-1-methylethyl-1-pyrrolidinyl]-8-chloro-1-cyclopropyl-6-fluoro-1,4-dihydro-4-oxo-3-quinolinecarboxylic acid, monohydrochloride], for which the MIC was 0.013 µg/mL in the data set on Strep. faecalis MGH-2; 0.05 µg/mL in the data set with Ent. cloacae MA2646; 0.8 µg/mL in the data set on Pseud. aeruginosa UI-18 [4]; at most 0.003 µg/mL with Strep. pneumoniae SV-1 [6]; 0.05 µg/mL in the data set with Esch. coli Vogel [7]; 0.006 µg/mL in the data set with Staph. aureus H 228. Moreover, the MIC was 0.1 µg/mL in the data set on Klebs. pneumoniae MGH-2, 0.2 µg/mL in the data set on Prot. rettgeri M 1771, at most 0.003 µg/mL with Staph. aureus UC-76 and at most 0.003 µg/mL with Strep. pyogenes C-203 [8]. Also, the ED50 in the data set with Esch. coli Vogel [1] (first line below the MICs) is 8 mg/kg; in the data set with Esch. coli Vogel [1] (second line below the MICs), 1 mg/kg; with Pseud. aeruginosa UI-18 [2] (first line below the MICs) it was 100 mg/kg; with Pseud. aeruginosa UI-18 [2] (second line below the MICs), 17 mg/kg; in the data set on Strep. pyogenes C-203 [3] (first line below the MICs), 2 mg/kg; with Strep. pyogenes C-203 [3] (second line below the MICs), 0.14 mg/kg. In addition, the CC50 at 3 h in data set [5] worked out at 8 µg/mL.

On to `CC(C)(N)[C@H]1CCN(c2nc3c(cc2F)c(=O)c(C(=O)O)cn3C2CC2)C1.Cl` [Example 3, (S)-7-[3-(1-Amino-1-methylethyl)-1-pyrrolidinyl]-1-cyclopropyl-6-fluoro-1,4-dihydro-4-oxo-1,8-naphthyridine-3-carboxylic acid, monohydrochloride], for which the MIC in the data set with Strep. faecalis MGH-2 stood at 0.1 µg/mL; in the data set with Ent. cloacae MA2646, 0.2 µg/mL; in the data set with Pseud. aeruginosa UI-18 [4] it was 3.1 µg/mL; in the data set on Strep. pneumoniae SV-1 [6], 0.05 µg/mL; in the data set on Esch. coli Vogel [7] it was 0.2 µg/mL; with Staph. aureus H 228, 0.1 µg/mL. The MIC in the data set with Klebs. pneumoniae MGH-2 is 0.4 µg/mL; with Prot. rettgeri M 1771, 0.8 µg/mL; in the data set with Staph. aureus UC-76, 0.025 µg/mL; with Strep. pyogenes C-203 [8] it was 0.1 µg/mL. Also, the ED50 in the data set with Esch. coli Vogel [1] (first line below the MICs) stood at 10 mg/kg; in the data set on Esch. coli Vogel [1] (second line below the MICs), 3 mg/kg; with Strep. pyogenes C-203 [3] (first line below the MICs), 32 mg/kg; with Strep. pyogenes C-203 [3] (second line below the MICs), 7 mg/kg. In the data set “in vivo”, this molecule yielded a no observed adverse effect level (NOAEL) of 30 mg/kg. Also, the CC50 at 3 h in data set [5] came to 58 µg/mL.

As for `CC(C)(N)[C@@H]1CCN(c2nc3c(cc2F)c(=O)c(C(=O)O)cn3C2CC2)C1` [Example 4], the MIC in the data set with Strep. faecalis MGH-2 amounted to 0.05 µg/mL (≈ 0.134 µM); in the data set on Ent. cloacae MA2646, 0.1 µg/mL (≈ 0.267 µM); in the data set with Pseud. aeruginosa UI-18 [4] it was 1.6 µg/mL (≈ 4.27 µM); in the data set on Strep. pneumoniae SV-1 [6] it was 0.006 µg/mL (≈ 0.016 µM); in the data set on Esch. coli Vogel [7], 0.05 µg/mL (≈ 0.134 µM); with Staph. aureus H 228 it was 0.05 µg/mL (≈ 0.134 µM). The MIC with Klebs. pneumoniae MGH-2 worked out at 0.2 µg/mL (≈ 0.534 µM); with Prot. rettgeri M 1771, 0.4 µg/mL (≈ 1.07 µM); in the data set with Staph. aureus UC-76, 0.003 µg/mL (≈ 0.00801 µM); in the data set with Strep. pyogenes C-203 [8], 0.013 µg/mL (≈ 0.0347 µM). Also, the ED50 with Esch. coli Vogel [1] (first line below the MICs) amounted to 5 mg/kg; in the data set on Esch. coli Vogel [1] (second line below the MICs) it was 1 mg/kg; with Pseud. aeruginosa UI-18 [2] (first line below the MICs) it was 50 mg/kg; in the data set with Pseud. aeruginosa UI-18 [2] (second line below the MICs), 22 mg/kg; in the data set with Strep. pyogenes C-203 [3] (first line below the MICs), 4 mg/kg; in the data set with Strep. pyogenes C-203 [3] (second line below the MICs), 1 mg/kg. The ED50 with Strep. pneumoniae SV-1 [9] (first line below the MICs) was 5 mg/kg; in the data set with Strep. pneumoniae SV-1 [9] (second line below the MICs), 2 mg/kg. In addition, the NOAEL in the data set “in vivo” came out at 30 mg/kg. Besides, in data set [5], the CC50 at 3 h came out at 130 µg/mL (≈ 347 µM).

Take `CC(C)(N)C1CCN(c2nc3c(cc2F)c(=O)c(C(=O)O)cn3C2CC2)C1` (centres unmarked) [reference compound]: the MIC in the data set on Strep. faecalis MGH-2 was found to be 0.05 µg/mL (≈ 0.134 µM); with Ent. cloacae MA2646, 0.1 µg/mL (≈ 0.267 µM); with Pseud. aeruginosa UI-18 [4], 1.6 µg/mL (≈ 4.27 µM); in the data set on Strep. pneumoniae SV-1 [6], 0.025 µg/mL (≈ 0.0668 µM); in the data set on Esch. coli Vogel [7], 0.1 µg/mL (≈ 0.267 µM); with Staph. aureus H 228, 0.05 µg/mL (≈ 0.134 µM). The MIC worked out at 0.2 µg/mL (≈ 0.534 µM) in the data set on Klebs. pneumoniae MGH-2, 0.4 µg/mL (≈ 1.07 µM) in the data set with Prot. rettgeri M 1771, 0.013 µg/mL (≈ 0.0347 µM) with Staph. aureus UC-76 and 0.025 µg/mL (≈ 0.0668 µM) in the data set on Strep. pyogenes C-203 [8]. This molecule returned an NOAEL in “in vivo” of 30 mg/kg. Further, the CC50 at 3 h in data set [5] was 66 µg/mL (≈ 176 µM).
